Literature values in patent US12377118B2, “Nanoparticle constructs for systemic co-delivery of anti-tumor agents” (CASE WESTERN RESERVE UNIVERSITY, priority 2019, dated 2025).

Tested on: 4T1 orthotopic mammary tumor
Details: i.t.

Nc1nc2c(ncn2[C@@H]2O[C@@H]3COP(=O)(O)O[C@H]4[C@@H](O)[C@H](n5cnc6c(=O)[nH]c(N)nc65)O[C@@H]4COP(=O)(O)O[C@H]3[C@H]2O)c(=O)[nH]1 [free cdGMP, cyclic diguanylate monophosphate]
dose needed to regress early 4T1 primary tumors: up to 50 μg
